Assay results as given in patent US9597407B2, “Targeted antimicrobial moieties” (C3 Jian, Inc., priority 2009, dated 2017).
“Also recorded” adds a separate entry of the source.

Assays:
[1] = system: bacteria; assay: Binding of targeting peptides to microorganisms (Table 3); conditions: preferably 1x PBS; for Target(s) (microorganism bound by the targeting peptide) / Target(s) (microorganisms bound by the targeting peptide): peptide binding in aqueous buffers that varied depending on peptide solubility; for Target(s): microorganism bound by the targeting peptide, binding in aqueous buffers chosen by peptide solubility
[2] = system: microorganisms; assay: Morphology, biofilm and growth disruption by peptides (Table 5); format: cell-based; set-up: key: A: Peptide aggregates; B: Less hyphal formation; Clumps; Diffuse clumps and small polyps; F: Diffuse growth; H: Thin; I: Growth inhibition; Microcolony formation; Rippled; Small polyps; Thick; W: Halo formation on top, microlonies on bottom
Text: In certain embodiments peptides that induce alterations in phenotype or other biological activities can also be used as antimicrobial effector moieties.

With “PF-601 (YRVTVKALE; Peptide with targeting and/or antimicrobial activity)” the “Target(s) (microorganism bound by the targeting peptide)” value [1] was “C. jeikeium”, the “Organism, effect (morphology, biofilm and growth disruption)” value ([2]; C. jejuni) was “C. jejuni (A)” and the “Organism, effect (morphology, biofilm and growth disruption)” value ([2]; E. faecalis) was “E. faecalis (A)”.
For “PF-433 (MRKEFHNVLSSGQLLADKRPARDYNRK; Peptide with targeting and/or antimicrobial activity)”, the “Target(s) (microorganisms bound by the targeting peptide)” value [1] was “S. epidermidis; also recorded: E. coli; also recorded: S. pneumoniae; also recorded: C. jeikeium” and the “Organism, effect (morphology, biofilm and growth disruption)” value ([2]; S. pneumoniae) was “S. pneumoniae (H)”.
With “PF-403 (LLSTEQLLKYYDGETFDGFQLPSNE; Peptide with targeting and/or antimicrobial activity)” the “Target(s) (microorganisms bound by the targeting peptide)” value [1] was “E. coli; also recorded: P. aeruginosa; also recorded: S. pneumoniae; also recorded: E. faecalis; also recorded: C. jeikeium; also recorded: C. jejuni”, the “Organism, effect” value ([2]; E. coli) was “E. coli (R)” and the “Organism, effect” value ([2]; MRSA) was “MRSA (M)”. For the same substance, the “Organism, effect” value ([2]; S. epidermidis) was “S. epidermidis (M)”.
With “PF-649 (chain 1 CPRYPFVDVGPAGPWRARWRVGS; chain 2 CPRYPFVDVGPAGPWRARWRVGS; Peptide with targeting and/or antimicrobial activity)” the “Target(s) (microorganism bound by the targeting peptide)” value [1] was “Mycobacteria spp” and the “Organism, effect (morphology, biofilm and growth disruption)” value ([2]; E. faecalis) was “E. faecalis (R)”.
For “PF-666 (chain 1 PNRRSRPR; chain 2 PNRRSRPR; Peptide with targeting and/or antimicrobial activity)”, the “Target(s) (microorganism bound by the targeting peptide)” value [1] was “Mycobacteria spp” and the “Organism, effect (morphology, biofilm and growth disruption)” value ([2]; S. pneumoniae) was “S. pneumoniae (A)”.
With “PF-C143 (VVFGGGDRLV; Peptide with targeting and/or antimicrobial activity)” the “Target(s) (microorganism bound by the targeting peptide)” value [1] was “A. naeslundii; also recorded: F. nucleatum; also recorded: P. gingivalis; also recorded: S. mutans; also recorded: T. denticola” and the “Organism, effect (morphology, biofilm and growth disruption)” value ([2]; F. nucleatum) was “F. nucleatum (C)”.
In the case of “PF-640 (chain 1 MGDINRNF; chain 2 MGDINRNF; Peptide with targeting and/or antimicrobial activity)”, the “Target(s) (microorganism bound by the targeting peptide)” value [1] is reported as “C. albicans”, the “Organism, effect (morphology, biofilm and growth disruption)” value ([2]; C. albicans) is reported as “C. albicans (B)” and the “Organism, effect (morphology, biofilm and growth disruption)” value ([2]; E. faecalis) is reported as “E. faecalis (H)”. For the same substance, the “Organism, effect (morphology, biofilm and growth disruption)” value ([2]; S. pneumoniae) was “S. pneumoniae (I)”.
LSLATFAKIFMTRSNWSLKRFNRL [PF-278] was tested, and the “Target(s)” value [1] was “M. luteus; also recorded: A. baumannii”, the “Organism, effect” value ([2]; C. albicans) was “C. albicans (B)” and the “Organism, effect” value ([2]; M. luteus) was “M. luteus (R)”. The “Organism, effect” value ([2]; S. epidermidis) was “S. epidermidis (I)”.
“PF-690 (chain 1 MIPLAGDPVSSHRTVEFGVLGTYLVSGGSL; chain 2 MIPLAGDPVSSHRTVEFGVLGTYLVSGGSL; Peptide with targeting and/or antimicrobial activity)” was tested, and the “Target(s) (microorganism bound by the targeting peptide)” value [1] was “Mycobacteria spp”, the “Organism, effect (morphology, biofilm and growth disruption)” value ([2]; E. faecalis) was “E. faecalis (R)” and the “Organism, effect (morphology, biofilm and growth disruption)” value ([2]; MRSA) was “MRSA (R)”. The “Organism, effect (morphology, biofilm and growth disruption)” value ([2]; S. epidermidis) was “S. epidermidis (R)” and the “Organism, effect (morphology, biofilm and growth disruption)” value ([2]; S. pneumoniae) was “S. pneumoniae (M)”.
In the case of “PF-273 (LVGALLIFVALIYMVLKGNADKN; Peptide with targeting and/or antimicrobial activity)”, the “Target(s)” value [1] is reported as “S. epidermidis; also recorded: M. luteus; also recorded: P. aeruginosa; also recorded: A. baumannii” and the “Organism, effect” value ([2]; S. epidermidis) is reported as “S. epidermidis (C)”.
With “PF-584 (SYIKNLSNQKFLIAF; Peptide with targeting and/or antimicrobial activity)” the “Target(s) (microorganisms bound by the targeting peptide)” value [1] was “S. epidermidis and M. luteus and P. mirabilis and C. albicans and MRSA and S. pneumoniae and E. faecalis and C. jeikeium”, the “Organism, effect (morphology, biofilm and growth disruption)” value ([2]; C. jejuni) was “C. jejuni (D)” and the “Organism, effect (morphology, biofilm and growth disruption)” value ([2]; E. coli) was “E. coli (C)”. The “Organism, effect (morphology, biofilm and growth disruption)” value ([2]; E. faecalis) was “E. faecalis (D)”, the “Organism, effect (morphology, biofilm and growth disruption)” value ([2]; MRSA) was “MRSA (D)” and the “Organism, effect (morphology, biofilm and growth disruption)” value ([2]; S. epidermidis) was “S. epidermidis (C)”. The “Organism, effect (morphology, biofilm and growth disruption)” value ([2]; S. pneumoniae) was “S. pneumoniae (D)”.
With “PF-657 (chain 1 YVANYTITQFGRDFDDRLAVAIHFA; chain 2 YVANYTITQFGRDFDDRLAVAIHFA; Peptide with targeting and/or antimicrobial activity)” the “Target(s) (microorganism bound by the targeting peptide)” value [1] was “Mycobacteria spp”, the “Organism, effect (morphology, biofilm and growth disruption)” value ([2]; C. jeikeium) was “C. jeikeium (D)” and the “Organism, effect (morphology, biofilm and growth disruption)” value ([2]; E. faecalis) was “E. faecalis (D)”. For the same substance, the “Organism, effect (morphology, biofilm and growth disruption)” value ([2]; MRSA) was “MRSA (D)”, the “Organism, effect (morphology, biofilm and growth disruption)” value ([2]; S. epidermidis) was “S. epidermidis (C)” and the “Organism, effect (morphology, biofilm and growth disruption)” value ([2]; S. pneumoniae) was “S. pneumoniae (H)”.
With “PF-408 (YCVPLGNMGNMNNKIW; Peptide with targeting and/or antimicrobial activity)” the “Target(s) (microorganisms bound by the targeting peptide)” value [1] was “S. epidermidis and E. coli and P. aeruginosa and MRSA and E. faecalis and C. jeikeium and C. jejuni”, the “Organism, effect” value ([2]; MRSA) was “MRSA (M)” and the “Organism, effect” value ([2]; S. epidermidis) was “S. epidermidis (M)”.
“PF-292 (SFVSTTVRLIFEESKRYKF; Peptide with targeting and/or antimicrobial activity)” was tested, and the “Target(s)” value [1] was “S. epidermidis; also recorded: B. subtilis; also recorded: B. fragilis”, the “Organism, effect” value ([2]; B. subtilis) was “B. subtilis (C)” and the “Organism, effect” value ([2]; S. epidermidis) was “S. epidermidis (C)”.
